Assays:
MDAMB453 = experiment: GRmax, 72 h; higher = less effect;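 further: breast cell lines in 384-well plates, nine doses across a 10^4 range, Dye Drop imaging of viable cells vs DMSO and time-zero plates, GR 0 means no net growth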
MDAMB330 = experiment: GRmax, 72 h; higher = less effect;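 further: breast cell lines in 384-well plates, nine doses across a 10^4 range, Dye Drop imaging of viable cells vs DMSO and time-zero plates, GR 0 means no net growth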
PDX1258 = experiment: GRmax, 72 h; higher = less effect;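 further: breast cell lines in 384-well plates, nine doses across a 10^4 range, Dye Drop imaging of viable cells vs DMSO and time-zero plates, GR 0 means no net growth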
HCC1569 = experiment: GRmax, 72 h; higher = less effect;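 further: breast cell lines in 384-well plates, nine doses across a 10^4 range, Dye Drop imaging of viable cells vs DMSO and time-zero plates, GR 0 means no net growth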
HS578T = experiment: GRmax, 72 h; higher = less effect
SKBR3 = experiment: GRmax, 72 h; higher = less effect
HCC202 = experiment: GRmax, 72 h; higher = less effect
HCC1143 = experiment: GRmax, 72 h; higher = less effect
CAL851 = experiment: area over the GR curve, 72 h; higher = more effect;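 further: Dye Drop or Deep Dye Drop imaging of viable cells in 384-well plates (Hoechst nuclei, LIVE/DEAD dye), nine half-log doses, GR normalized to DMSO controls and time-zero plates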
HTERT_HME1 = experiment: area over the GR curve, 72 h; higher = more effect;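 further: Dye Drop or Deep Dye Drop imaging of viable cells in 384-well plates (Hoechst nuclei, LIVE/DEAD dye), nine half-log doses, GR normalized to DMSO controls and time-zero plates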
HCC1954 = experiment: area over the GR curve, 72 h; higher = more effect;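 further: Dye Drop or Deep Dye Drop imaging of viable cells in 384-well plates (Hoechst nuclei, LIVE/DEAD dye), nine half-log doses, GR normalized to DMSO controls and time-zero plates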

SMILES	GRmax, 72 h (MDAMB453)	GRmax, 72 h (MDAMB330)	GRmax, 72 h (PDX1258)	GRmax, 72 h (HCC1569)	GRmax, 72 h (HS578T)	GRmax, 72 h (SKBR3)	GRmax, 72 h (HCC202)	GRmax, 72 h (HCC1143)	area over the GR curve (CAL851)	area over the GR curve (HTERT_HME1)	area over the GR curve (HCC1954)
COc1cccc(OCCCN)c1-c1cc(Nc2cnc(C#N)cn2)n[nH]1	-0.513 GR	-0.183 GR	-0.457 GR	-0.0272 GR	-0.359 GR	-0.406 GR	0.0486 GR	-0.117 GR	0.608 GR	0.596 GR	1.21 GR
Cc1nc(NC(=O)N2CCC[C@H]2C(N)=O)sc1-c1ccnc(C(C)(C)C(F)(F)F)c1 [Alpelisib/BYL719] (max 10 µM)	-0.307 GR	-0.555 GR	0.631 GR	0.369 GR	0.531 GR	-0.143 GR	0.0449 GR	0.48 GR	0.194 GR	0.112 GR	0.264 GR
CC(=O)c1c(C)c2cnc(Nc3ccc(N4CCN(CCOCCOCCOCCNC(=O)COc5cccc6c5C(=O)N(C5CCC(=O)NC5=O)C6=O)CC4)cn3)nc2n(C2CCCC2)c1=O (stereo unspecified) [BSJ-03-123] (max 10 µM)	-0.022 GR	-0.0919 GR	-0.415 GR	-0.03 GR	-0.263 GR	-0.347 GR	0.0834 GR	-0.0159 GR	0.405 GR	0.422 GR	0.33 GR
CC(=O)c1c(C)c2cnc(Nc3ccc(N4CCNCC4)cn3)nc2n(C2CCCC2)c1=O (max 3.162 µM)	0.0416 GR	0.207 GR	1.02 GR	0.983 GR	0.305 GR	0.35 GR	0.691 GR	0.282 GR	-0.0843 GR	0.259 GR	0.176 GR
CS(=O)(=O)N1CCN(Cc2cc3nc(-c4cccc5[nH]ncc45)nc(N4CCOCC4)c3s2)CC1 [Pictilisib/GDC0941] (max 10 µM)	-0.374 GR	-0.817 GR	0.0518 GR	-0.054 GR	0.0345 GR	-0.127 GR	-0.0303 GR	-0.129 GR	0.36 GR	0.134 GR	0.309 GR
Cc1cc(Nc2ncc(Cl)c(Nc3ccccc3S(=O)(=O)C(C)C)n2)c(OC(C)C)cc1C1CCNCC1 [Ceritinib/LDK378] (max 10 µM)	-0.687 GR	0.152 GR	-0.684 GR	-0.83 GR	-0.436 GR	-0.825 GR	-0.803 GR	-0.422 GR	0.372 GR	0.286 GR	0.124 GR
CC(=O)Nc1cccc(-n2c(=O)n(C3CC3)c(=O)c3c(Nc4ccc(I)cc4F)n(C)c(=O)c(C)c32)c1 (max 1 µM)	0.0489 GR	0.251 GR	0.85 GR	0.522 GR	0.193 GR	0.683 GR	0.526 GR	-0.0225 GR	0.41 GR	0.434 GR	0.401 GR
CC[C@@]1(O)C(=O)OCc2c1cc1n(c2=O)Cc2cc3c(CN(C)C)c(O)ccc3nc2-1 [Topotecan] (max 10 µM)	-0.529 GR		-0.457 GR		-0.449 GR	-0.271 GR		-0.43 GR	0.843 GR	0.873 GR	0.869 GR
CCNC(=O)c1noc(-c2cc(C(C)C)c(O)cc2O)c1-c1ccc(CN2CCOCC2)cc1 [Luminespib/NVP-AUY922] (max 1 µM)	-0.499 GR	-0.344 GR	-0.29 GR	-0.0081 GR	-0.114 GR	-0.0766 GR	0.115 GR	-0.192 GR	0.75 GR	0.633 GR	0.601 GR
